Data taken from patent publication US20090042783A1, “APO E ANALOGS AND METHODS FOR THEIR USE” (priority 2004, published 2009).
Read-outs that look alike come from different tables or passages of the source. Marks after values point to notes of the source that are not given here. Non-standard residues stand in square brackets, D forms with d. Aib = CC(C)(N)C(=O)O

Experiments:
[1] = system: mice infected with C. rodentium; assay: C. rodentium colitis; format: in vivo; details: for Colon wt (% Total Body wt) / Histology Score / Body wt (% Total Body wt): WT mice, 10 days; for Body wt (% Total Body wt): 0.1% BEC or 2.5% DFMO
From the text: C. rodentium colitis: Of the two existing mouse models (Gobert A P et al., 2004; Cheng Y. et al., 2003), the C. rodentium model was selected because it produces a Th1-predominant mucosal inflammation that has histologic changes similar to human IBD (Higgins L M et al., 1999). In this model, mice are infected by oral gavage with C. rodentium (Gobert A P et al., 2004), a gram negative pathogenic bacterium that is the rodent equivalent of enteropathogenic E. coli that causes diarrhea in humans.
Since arginase I and iNOS were both abundantly expressed in the colitis tissues and L-Arg was completely metabolized, we investigated the effect of administration of 1% L-Arg in the drinking water. In wild type (WT) mice, C. rodentium colitis induced a high level of mortality that began on day 9 post-infection (FIG. 31A). In WT animals treated with L-Arg, mortality was inhibited by 42% and 62% compared to mice receiving water alone, after 12 and 14 days of infection, respectively (FIG. 31A). By Cox regression analysis, WT mice treated with L-Arg had only a 31% hazard of death compared with mice receiving water alone (p<0.0009). In iNOS^−/− mice, no deaths were observed, with or without L-Arg (FIG. 31A). […] Note that the weight loss of WT mice is underestimated, since only the weights of animals still alive could be included. […] There was an additive effect of iNOS deletion and L-Arg administration, with a 68% decrease in colon weight. Neither iNOS deletion nor L-Arg treatment affected colon weight in uninfected control mice. Importantly, these changes were closely paralleled by changes in colon histology (FIG. 32).
In uninfected control mice, BEC or DFMO had no effect (Table I). […] In fact, experiments had to be terminated early at 10 days post-infection, because of deaths and severe disease at this point.

[2] = system: BV2 murine microglial cells
Procedure: For Applicants preliminary work, the two most common PTDs, TAT and penetratin, were used.
Cell Culture: BV-2, a well-characterized murine microglial cell line (Bochinni, 1992), is cultured in high glucose content DMEM supplemented with 1% penicillin/streptomycin, 10% fetal calf serum, 1% nonessential amino acids, and 1% sodium pyruvate. Cells are grown to confluency; trypsinized; spun down; resuspended in serum-free OptiMEM containing 1% N2 supplement, 1% penicillin/streptomycin, 1% nonessential amino acids, and 1% sodium pyruvate; and plated at a concentration of 20,000 cells/well to remove any nonadherent cells and serum.
Supernatant is collected 24 and/or 48 h after LPS stimulation and assayed for nitrite.
Quantification of Nitric Oxide (NO): Accumulation of nitrite (stable end product of NO production) in the medium is measured by colometric Griess reagent system (Promega); the absorbance is determined at 540 nm.
Cell Viability Assay: Cell viability is measured using a nonradioactive cell viability assay (cell titer 96 AQ, Promega). The assay measures the bioreduction of MTS (3-(4,5-dimethylthiazole-2-)-5-(3-carboxymethoxyphenyl)-2-(4-sulfophenyl)-2H-tetrazolium by viable cells into formazan. The absorbance of the calorimetric assay is measured at λ 490 nm. Viability is assessed and used to normalize the nitrite data.

[3] = system: mice with traumatic brain injury; assay: Closed head injury model of traumatic brain injury (rotorod, Morris Water Maze); details: for In vivo Therapeutic window time expanded?: mouse
Procedure: C57Bl/6J male mice (The Jackson Laboratory, ME), 12-16 weeks of age and weighing 24-32 g, are used for all experiments. Anesthesia is first induced with isoflurane in 30% O2/balance N2. The trachea is intubated and the lungs mechanically ventilated with 1.6% isoflurane in 30% O2/balance N2. Temperature is monitored with a rectal probe and maintained at 36.5° C. with a heat lamp. The right internal jugular vein is cannulated with silicone catheter. […] Intubated animals are then placed prone on a molded acrylic cast (FIG. 6A). […] The scalp is incised and the skull exposed. A concave 3 mm metallic disc is secured to the skull surface (with the concave surface in juxtaposition to the skull) by an adhesive. […] The disc is placed directly midline just caudal to bregma (FIG. 6B). […] The mice are positioned in a stereotactic frame. Although the stereotactactic frame helps to stabilize the animal and exactly calibrate the vertical displacement on impact (3 mm), ear bars are not used due to a much higher rate of skull fracture (or brainstem injury if the head rotates around the axis of the ear bars during impact). The piston is discharged at 6.8±0.2 m/s so as to impact the skull in the acrylic mold to move a maximum of approximately 3 mm (FIG. 6C). Inspired isoflurane is decreased to 0.7% immediately after impact. The scalp was infiltrated with lidocaine and closed with suture. Ophthalmic ointment was applied to the eyes for protection. The incidence of skull fracture is low (approximately 10%), as the metal disk helps to diffuse the impact, and the absence of ear bar fixation allows for displacement of the entire head. Mice were excluded if a depressed skull fracture was observed (incidence of approximately 10%). The animals are allowed to recover spontaneous ventilation then extubated. […] In these mice, arterial blood pressure, blood gas and glucose measurement at baseline, immediately after injury, and 15 minutes after injury are monitored during the recovery period.
Briefly, baseline performance on rotorod is established before the mice are intubated, the skin over the scalp reflected and a controlled cortical impact from a pneumatic impactor given on the midline. The skin is closed with surgical clips and the animals are constantly monitored until awake from anesthesia and then hourly for the next 4 hours. […] Performance on rotorod is tested at 24 hours post impaction and then every day for 5 days and data is presented as described. Groups of 12 mice are used for each compound at 0.5×MTD. […] Novel peptides and non-peptide analogs are also given by tail vein injection.
Daily Rotarod (RR) testing was used to assess short term motor and cerebellar deficit following head injury (Hamm et al., 1994). Mice were held by their tails and placed on the RR facing the wall by using gentle swinging motion while running in a constant speed mode.

BV2 microglial cells = system: BV2 microglial cells
Procedure: For suppression of inflammation profiling, each peptide analog was tested at a final concentration of 0.1, […], 1, 3, 5, 10 and 25 μM in an LPS induced BV2 microglial cell release of NO and/or TNFα. […] The modification was a biotin label on the apoE peptide (biotin-[…]-amide) which allows detection with ^125I-streptavidin (ISA, Amersham).
In overview, BV-2 cells are plated in 96 well plates in complete media and then the media is replaced the next day with serum free media or reduced serum (1%) media. […] Each concentration of peptide (standard initial concentrations are 0.1, 0.5, 1, 3, 10 and 25 μM) is added to at least 6 wells of cells (e.g. 6 wells get 0.1 μM peptide, 6 wells get 0.5 μM peptide, etc.) and data are averaged from all 6 wells. […] (2001). Cell viability is also measured with an MTT assay (Laskowitz et al. 2001).

peritoneal macrophages = assay: Peritoneal macrophage production of NO, TNFα and IL-6 induced by MOG or LPS/IFN-γ; format: cell-based, mouse
Procedure: For this purpose, three mice with clinical scores of 0 and three with clinical scores of 4 at 30 dpi (day post-immunization) were used for preparation of peritoneal macrophage cultures. Macrophages were collected after peritoneal lavage with 3 ml heparin (10 U/ml)-containing PBS and then seeded to 96-well microplates at a density of 1×10^5 cells/well in Dulbecco's MEM containing 10% fetal bovine serum, 2 mM L-glutamine serum, 1% HEPES and 100 U/ml penicillin and 100 μg/ml streptomycin, 37° C. in a humidified incubator with 5% CO2. 24 h later, the serum-containing medium was removed and cells were washed once with serum-free medium. To examine the differentiated response of macrophage to immune stimulators, macrophages obtained from mice with clinical scores of 0 or 4 were exposed to serial concentrations of IFN-γ/LPS or MOG35-55 peptide. […] Media were collected at 45 h or 72 h, and analyzed by ELISA for […] and IL-6 or for nitric oxide (NO) as detailed below.
As the stable end product of nitric oxide release, nitrite levels in conditioned media were determined by injecting 50 μl media sample into a Sievers 280 NOA analyzer (Boulder, Colo., USA). Total protein (μg/well) was measured using the BCA method (Pierce, Rockford, Ill., USA) according to manufacturer's instructions with BSA as standard. BCA values were measured using a Molecular Devices Thermomax Microplate Reader (Menlo Park, Calif., USA) at OD562. Nitric oxide levels ere expressed as μM NO2—/mg protein.
For cytokine assays, supernatants were collected 45 h after […]/LPS or MOG treatments and quantitative ELISAs using selected pairs of monoclonal antibodies (as recommended by the manufacturer Biosource) were performed to quantify the cytokines, TNF-α and IL-6. For TNF-α ELISA, 96-well ELISA plates were pre-coated with rabbit anti-mouse polyclonal to TNF-α as capture antibodies for 18 h at 2-8° C. and then blocked for 2 h at room temperature. The wells were incubated with samples or mouse TNF-α standards. Following incubation for 2 h at room temperature, the wells were washed, after which hamster anti-mouse TNF-α biotinylated secondary antibody and horseradish peroxidase conjugate were added. Tetramethylbenzidine (TMB) solution was then added, and peroxidase-catalyzed color change was stopped by acidification with 2 NH2SO4. The plates were scanned at wavelength 450 nm and the absorbance were measured. The results are expressed as the mean concentration (pg/ml) ±SEM.
For IL-6 ELISA, rat anti-mouse monoclonal to IL-6 was used as capture antibody, and biotinylated rat anti-mouse monoclonal to IL-6 as detection antibody. The rest of procedure is identical to that of TNF-α ELISA.

NCCCC(N)(C(=O)O)C(F)F (centres unmarked) [DFMO, -difluoromethylornithine]
Colon wt (% Total Body wt) ([1]; C. rodentium): 1.35 ± 0.12^b,d % Total Body wt | Histology Score ([1]; C. rodentium): 9.54 ± 0.68^b,d | Body wt (% Total Body wt) ([1]; C. rodentium): 78.6 ± 0.4^b,c % Total Body wt | Colon wt (% Total Body wt) ([1]; PBS (uninfected)): 0.61 ± 0.07 % Total Body wt | Histology Score ([1]; PBS (uninfected)): 0.75 ± 0.25 | Body wt (% Total Body wt) ([1]; PBS (uninfected)): 101.3 ± 2.6 % Total Body wt | Survival of C. rodentium-infected mice ([1]; in the drinking water): significant loss of survival | Effect in uninfected control mice ([1]; mouse, in vivo): had no effect

CSCC[C@H](NC(=O)[C@H](CCCNC(=N)N)NC(=O)[C@H](CCCNC(=N)N)NC(C)=O)C(=O)N[C@@H](CCCCN)C(=O)N[C@@H](Cc1c[nH]c2ccccc12)C(=O)N[C@@H](CCCCN)C(=O)N[C@@H](CCCCN)C(=O)N[C@@H](CC(C)C)C(=O)N[C@@H](CCCNC(=N)N)C(=O)N[C@H](C(=O)N[C@@H](CCCNC(=N)N)C(=O)N[C@@H](CC(C)C)C(=O)N[C@@H](C)C(=O)N[C@@H](CO)C(=O)N[C@@H](Cc1c[nH]cn1)C(=O)N[C@@H](CC(C)C)C(=O)N[C@@H](CCCNC(=N)N)C(=O)N[C@@H](CCCCN)C(=O)N[C@@H](CC(C)C)C(=O)N[C@@H](CCCNC(=N)N)C(=O)N[C@@H](CCCCN)C(=O)N[C@@H](CCCNC(=N)N)C(=O)N[C@@H](CC(C)C)C(=O)N[C@@H](CC(C)C)C(N)=O)C(C)C [antp (52-58)]
IC50 [2]: 11 µM

Ac-ASHLRKL-Aib-KRLL-NH2 (Ac-ASHLRKL[Aib]KRLL-NH2; SMILES CC(=O)N[C@@H](C)C(=O)N[C@@H](CO)C(=O)N[C@@H](Cc1c[nH]cn1)C(=O)N[C@@H](CC(C)C)C(=O)N[C@@H](CCCNC(=N)N)C(=O)N[C@@H](CCCCN)C(=O)N[C@@H](CC(C)C)C(=O)NC(C)(C)C(=O)N[C@@H](CCCCN)C(=O)N[C@@H](CCCNC(=N)N)C(=O)N[C@@H](CC(C)C)C(=O)N[C@@H](CC(C)C)C(N)=O) [COG432]
Rotorod performance (100% is performance prior to TBI) ([3]; 4 mg/kg, started 2 hours post TBI, day 5 post TBI): about 80%

Ac-ASHLRKLRKRLL-NH2 [apoE 138-149]
Activity at 25 μM in suppression of NO / TNFα release (BV2 microglial cells): failed to show activity

Ac-RGGRLAYLRRRWAVLGRLRVRLASHLRKLRKRLL-NH2 (N-terminus and C-terminus assumed) [SynB5]
IC50 [2]: 3.2 µM | IC50 ([2]; read-out: IC50 TNFα, in vitro): 4.2 µM | In vivo Therapeutic window time expanded? [3]: No; Tested at 6 X

Ac-RRLSYSRRRFLRVRLASHLRKLRKRLL-NH2 (N-terminus and C-terminus assumed) [SynB3]
IC50 [2]: 5.9 µM | IC50 ([2]; read-out: IC50 TNFα, in vitro): 5.1 µM | Rotorod latency, single tail vein injection 2 hours post TBI ([3]; 2 hours post traumatic brain injury): significantly improves outcome from head trauma | In vivo Therapeutic window time expanded? [3]: Yes; tested at 4 X

Ac-RRRRRRRRLRVRLASHLRKLRKRLL-NH2 (N-terminus and C-terminus assumed) [polyArg (8R)]
IC50 [2]: 4 µM | IC50 ([2]; read-out: IC50 TNFα, in vitro): 4.2 µM

ApoE 135-149: truncated apoE peptide, residues 135-149 (VRLASHLRKLRKRLL; UniProt P02649 153-167, looked up, fragment)
Fold less potent than apoE 130-150 (BV2 microglial cells): 5 fold

ApoE 139-149: truncated apoE peptide, residues 139-149 (SHLRKLRKRLL; UniProt P02649 157-167, looked up, fragment)
Activity at 25 μM in suppression of NO / TNFα release (BV2 microglial cells): failed to show activity

LRVRLASHLRKLRKRLA [L149A]
EC50 (BV2 microglial cells; read-out: Structure activity in the COG133 peptide from single amino acid replacements, binding and/or suppression of NO or TNFα release, compared with 3.5 μM EC50 of COG133): > 3.5 µM

RQIKIWFQNRRMKWKK (Protein transduction domain conjugate Antp) [antennapedia prefix peptide, portion of antennapedia that serves as a prefix to COG133, reference compound]
Inhibition of cytokine production induced by MOG or LPS/IFN-γ (peritoneal macrophages): showed no activity

apoE 130-147: truncated apoE peptide, residues 130-147 (TEELRVRLASHLRKLRKR; UniProt P02649 148-165, looked up, fragment)
Activity at 25 μM in suppression of NO / TNFα release (BV2 microglial cells): failed to show activity

apoE 130-148: truncated apoE peptide, residues 130-148 (TEELRVRLASHLRKLRKRL; UniProt P02649 148-166, looked up, fragment)
Activity at 25 μM in suppression of NO / TNFα release (BV2 microglial cells): failed to show activity

apoE 134-149: truncated apoE peptide, residues 134-149 (RVRLASHLRKLRKRLL; UniProt P02649 152-167, looked up, fragment)
Fold less potent than apoE 130-150 (BV2 microglial cells): 2.5 fold

apoE 136-149: truncated apoE peptide, residues 136-149 (RLASHLRKLRKRLL; UniProt P02649 154-167, looked up, fragment)
Fold less potent than apoE 130-150 (BV2 microglial cells): 8 fold

apoE 137-149: truncated apoE peptide, residues 137-149 (LASHLRKLRKRLL; UniProt P02649 155-167, looked up, fragment)
Activity at 25 μM in suppression of NO / TNFα release (BV2 microglial cells): failed to show activity
